For 15 molecules, inhibition, Activity and IC50 results are on record in ChEMBL document CHEMBL4308860, “Nature-inspired development of unnatural meroterpenoids as the non-toxic anti-colon cancer agents” (Eur J Med Chem, 2018).

Active and inactive are the calls of the source. The calls are words filed in the database; no cut-off is given here. Where only a bound is given, the exact number is not on record here.

Data set [1] concerns HT-29. Briefly: Antiproliferative activity against human HT-29 cells assessed as inhibition of cell proliferation at 25 uM after 72 hrs by MTT assay. The data set is classed as functional. The following applies: HT-29, 72 h.
The test system of data set [2] is HT-29. The data set is described as follows: Cell cycle arrest in human HT-29 cells assessed as accumulation at S phase up to 10 uM after 48 hrs by propidium iodide/RNase staining based flow cytometric analysis. The data set is classed as functional.
For data set [3], the system named is HT-29. Briefly: Antiproliferative activity against human HT-29 cells assessed as inhibition of cell proliferation after 72 hrs by MTT assay. Conditions: for IC50: HT-29, 72 h. The data set is classed as functional, cell-based.
Data set [4] has as its system HT-29. The data set is described as follows: Down regulation of COX-2 level in human HT-29 cells up to 25 uM after 48 hrs by Western blot analysis. The data set is classed as functional, cell-based.
For the next data set, the system named is L132. The data set is described as follows: Antiproliferative activity against human L-132 cells up to 25 uM after 72 hrs by MTT assay. The data set is classed as cell-based. Conditions: l132, 72 h.
For data set [5], the system named is HT-29. Briefly: Cytotoxicity against human HT-29 cells assessed as increase in cell death after 72 hrs by Propidium iodide staining-based flow cytometric analysis. The data set is classed as functional.
Data set [6] deals with HT-29. The data set is described as follows: Cytotoxicity against human HT-29 cells assessed as cell death at 50 uM after 72 hrs by Propidium iodide staining-based flow cytometric analysis relative to control. The data set is classed as functional.
Data set [7] relates to HT-29. The data set is described as follows: Down regulation of survivin level in human HT-29 cells up to 25 uM after 48 hrs by Western blot analysis. The data set is classed as functional, cell-based.
In data set [8] the test system is HT-29. The data set is described as follows: Cell cycle arrest in human HT-29 cells assessed as accumulation at G2/M phase up to 15 uM after 48 hrs by propidium iodide/RNase staining based flow cytometric analysis. The data set is classed as functional.
For data set [9], the system named is HT-29. The data set is described as follows: Induction of apoptosis in human HT-29 cells assessed as increase in apoptotic body formation up to 25 uM after 72 hrs by calcein-AM/ethidium homodimer-1 staining-based fluorescence microscopic analysis. The data set is classed as functional, cell-based.
The subject of data set [10] is HT-29. The data set is described as follows: Cell cycle arrest in human HT-29 cells assessed as accumulation at G2/M phase up to 10 uM after 48 hrs by propidium iodide/RNase staining based flow cytometric analysis. The data set is classed as functional.
The subject of data set [11] is HT-29. The data set is described as follows: Cell cycle arrest in human HT-29 cells assessed as accumulation at S phase up to 7 uM after 48 hrs by propidium iodide/RNase staining based flow cytometric analysis. The data set is classed as functional.
The subject of data set [12] is HT-29. Briefly: Cell cycle arrest in human HT-29 cells assessed as accumulation at G0/G1 phase up to 5 uM after 48 hrs by propidium iodide/RNase staining based flow cytometric analysis. The data set is classed as functional.
Data set [13] concerns HT-29. Briefly: Cell cycle arrest in human HT-29 cells assessed as accumulation at S phase up to 5 uM after 48 hrs by propidium iodide/RNase staining based flow cytometric analysis. The data set is classed as functional.

For the molecule `CC1(C)CC[C@@H]2c3ccccc3C[C@]3(C)CCC[C@@H]1[C@H]23`, the inhibition at 25 µM in the data set on HT-29 [1] stood at 22.4%.

As to `Cc1ccc(C[C@]2(O)CCC[C@H]3C(C)(C)CCC[C@@]32C)cc1`, the inhibition at 25 µM in the data set on HT-29 [1] is 13%.

On to `CC1(C)CC[C@@H]2C3=C(C[C@]4(C)CCC[C@@H]1[C@H]24)C(=O)C=CC3=O`, for which the result in the data set with HT-29 [2], in the data set on HT-29 [4] and with HT-29 [7] was Active. Moreover, the Activity entry is “Dose-dependent effect” in the data set on HT-29 [3], “Non-Toxic” in the data set with L132, “Dose-dependent effect” in the data set on HT-29 [5] and over 50% with HT-29 [6]. Also, the IC50 with HT-29 [3] worked out at 14.5 µM. The inhibition at 25 µM in the data set with HT-29 [1] was 124%.

For the molecule `COc1ccc(C[C@]2(O)CCC[C@H]3C(C)(C)[C@@H](O)CC[C@@]32C)cc1`, the inhibition at 25 µM with HT-29 [1] was -3.48%.

In the case of `CC1(C)CC[C@@H]2c3ccc(O)c(O)c3C[C@]3(C)CCC[C@@H]1[C@H]23`, the outcome in the data set with HT-29 [2], with HT-29 [4] and in the data set with HT-29 [7] was Active. For the same molecule, the figures for the Activity result in the data set on HT-29 [3], in the data set with L132 and in the data set on HT-29 [5] were “Dose-dependent effect”, “Non-Toxic” and “Dose-dependent effect”, respectively. In addition, the IC50 in the data set on HT-29 [3] turned out to be 16.5 µM. In addition, the inhibition at 25 µM in the data set on HT-29 [1] stood at 118%.

For `CC1(C)CC[C@@H]2c3cc(O)ccc3C[C@@]3(C)[C@@H]2[C@H]1CCC3(C)C`, the Activity result in the data set with HT-29 [3] is “Dose-dependent effect”; in the data set on L132, “Non-Toxic”; in the data set on HT-29 [5], “Dose-dependent effect”; with HT-29 [6] it was over 50%. In addition, the IC50 with HT-29 [3] turned out to be 15 µM. Moreover, the outcome in the data set on HT-29 [4], with HT-29 [8], with HT-29 [7] and in the data set on HT-29 [9] was Active. For the same molecule, in the data set on HT-29 [1], the inhibition at 25 µM stood at 97.5%.

`CC1(C)CC[C@@H]2c3cccc(O)c3C[C@]3(C)CCC[C@@H]1[C@H]23`: the inhibition at 25 µM in the data set on HT-29 [1] came to 39.1%.

For `CC1(C)CC[C@@H]2c3ccc(O)cc3C[C@]3(C)CCC[C@@H]1[C@H]23`, the Activity result is “Dose-dependent effect” in the data set with HT-29 [3], “Non-Toxic” in the data set with L132, “Dose-dependent effect” with HT-29 [5] and over 50% in the data set with HT-29 [6]. Further, in the data set on HT-29 [3], the IC50 is 20.5 µM. Also, the inhibition at 25 µM with HT-29 [1] came to 112%. Moreover, in the data set with HT-29 [10], the outcome was Active.

With `CC1(C)CC[C@@H]2c3cc(O)c(O)cc3C[C@]3(C)CCC[C@@H]1[C@H]23`, the Activity result was “Dose-dependent effect” with HT-29 [3], “Non-Toxic” in the data set with L132 and “Dose-dependent effect” in the data set on HT-29 [5]. In the data set with HT-29 [3], the IC50 came out at 7.5 µM. Moreover, the outcome in the data set on HT-29 [4], in the data set on HT-29 [11], in the data set with HT-29 [7] and in the data set with HT-29 [9] was Active. Besides, the inhibition at 25 µM in the data set on HT-29 [1] is 142%.

In the case of `CC1(C)CC[C@@H]2c3cc(O)ccc3C[C@]3(C)CCC[C@@H]1[C@H]23`, the result in the data set with HT-29 [2], in the data set on HT-29 [4] and in the data set with HT-29 [7] was Active. In addition, the Activity result was “Dose-dependent effect” with HT-29 [3], “Non-Toxic” in the data set on L132, “Dose-dependent effect” in the data set with HT-29 [5] and over 50% with HT-29 [6]. Further, the IC50 with HT-29 [3] stood at 16 µM. The inhibition at 25 µM with HT-29 [1] is 114%.

Regarding `C[C@@H]1CC[C@@H]2C3=C(C[C@]4(C)CCC[C@@H]1[C@H]24)C(=O)C=CC3=O`, the Activity result in the data set on HT-29 [3] is “Dose-dependent effect”; with L132, “Non-Toxic”; in the data set with HT-29 [5] it was “Dose-dependent effect”; with HT-29 [6] it was over 50%. Also, the IC50 with HT-29 [3] is 8 µM. In addition, the result with HT-29 [4], in the data set on HT-29 [7], in the data set on HT-29 [9] and in the data set with HT-29 [12] was Active. The inhibition at 25 µM in the data set with HT-29 [1] worked out at 71.8%.

`COc1ccc(CC2(O)CCC[C@@H]3CCCC[C@@H]32)cc1` (some centres undefined): the inhibition at 25 µM in the data set on HT-29 [1] was 0.56%.

With `C[C@@H]1CC[C@H]2C(C)(C)[C@@H](O)CC[C@]2(C)C1(O)Cc1ccccc1O` (some centres undefined), in the data set with HT-29 [1], the inhibition at 25 µM is -1.89%.

For the molecule `CC(C)(C)c1ccc2c(c1)[C@H]1CCC(C)(C)[C@@H]3CCC[C@@](C)(C2)[C@@H]13`, the inhibition at 25 µM with HT-29 [1] is -1.89%.

Consider `O=c1[nH]cc(F)c(=O)[nH]1` [FLUOROURACIL], for which, in the data set with HT-29 [3], the Activity entry is “Dose-dependent effect” and the IC50 came out at 6.5 µM. For the same molecule, the result in the data set on HT-29 [13] was Active. In addition, the Activity result in the data set on L132 is “Non-Toxic”. The outcome in the data set on HT-29 [5] was inactive.
